Laboratory results taken from patent publication US8815857B2 (Boehringer Ingelheim International GmbH, priority 2011, dated 2014).
Converted amounts (≈) assume the structure as drawn.

Legend:
[1] = biological target: T1, Recombinant human soluble guanylate cyclase (sGC), alpha 1 / beta 1 subunits, heme-free (Homo sapiens, UniProt Q02108+Q02153); test: Molecular assay: cGMP formation by heme-free recombinant sGC (CisBio cGMP detection kit); assay type: biochemical; details: 300 pM heme-free sGC, 37° C., 60 min, cGMP readout; read-out: EC50 nM, Activity of Compounds in Molecular Assay
T1 construct: histidine tag (C); made in house; host or cells: Sf9 insect cells (baculovirus coinfection)
T1 sequence (Q02108 1-690 partner): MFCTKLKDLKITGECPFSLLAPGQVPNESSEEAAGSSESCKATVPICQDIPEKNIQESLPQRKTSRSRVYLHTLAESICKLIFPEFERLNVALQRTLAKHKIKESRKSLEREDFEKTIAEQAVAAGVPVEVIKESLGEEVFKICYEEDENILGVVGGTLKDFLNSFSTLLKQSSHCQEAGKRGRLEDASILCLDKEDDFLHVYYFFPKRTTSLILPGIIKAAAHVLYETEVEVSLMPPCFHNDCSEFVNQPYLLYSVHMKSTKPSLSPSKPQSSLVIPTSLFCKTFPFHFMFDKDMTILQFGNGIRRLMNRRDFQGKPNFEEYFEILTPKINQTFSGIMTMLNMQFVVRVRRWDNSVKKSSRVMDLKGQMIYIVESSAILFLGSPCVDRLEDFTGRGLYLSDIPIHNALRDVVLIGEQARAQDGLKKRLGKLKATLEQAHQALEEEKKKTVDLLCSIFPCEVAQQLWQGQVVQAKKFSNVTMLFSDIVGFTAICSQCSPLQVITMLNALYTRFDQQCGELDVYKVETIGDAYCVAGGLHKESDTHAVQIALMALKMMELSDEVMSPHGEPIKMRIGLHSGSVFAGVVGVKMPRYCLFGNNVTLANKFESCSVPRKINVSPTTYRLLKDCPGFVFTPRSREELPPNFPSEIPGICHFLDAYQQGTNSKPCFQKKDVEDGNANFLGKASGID
T1 sequence (Q02153 1-619): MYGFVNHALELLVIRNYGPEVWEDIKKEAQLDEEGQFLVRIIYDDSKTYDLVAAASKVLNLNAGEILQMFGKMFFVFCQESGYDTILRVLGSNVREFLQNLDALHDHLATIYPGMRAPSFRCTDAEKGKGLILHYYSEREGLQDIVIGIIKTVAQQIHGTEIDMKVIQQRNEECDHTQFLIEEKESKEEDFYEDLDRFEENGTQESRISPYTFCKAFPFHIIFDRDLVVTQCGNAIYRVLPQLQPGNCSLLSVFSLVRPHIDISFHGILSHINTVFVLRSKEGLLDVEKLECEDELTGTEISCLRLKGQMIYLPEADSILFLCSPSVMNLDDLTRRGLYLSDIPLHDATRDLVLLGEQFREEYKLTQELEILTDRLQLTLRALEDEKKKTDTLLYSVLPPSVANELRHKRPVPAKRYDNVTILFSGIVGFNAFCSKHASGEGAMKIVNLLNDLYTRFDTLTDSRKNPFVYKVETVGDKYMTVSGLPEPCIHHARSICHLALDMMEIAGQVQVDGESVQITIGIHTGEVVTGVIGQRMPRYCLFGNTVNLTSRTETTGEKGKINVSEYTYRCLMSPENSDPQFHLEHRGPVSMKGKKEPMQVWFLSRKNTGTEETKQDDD
In short: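 cGMP generated over 60 min at 37° C (pH 6.8 MOPS buffer, 50 nM GTP, 1.25 mM IBMX, 1% DMSO) by 300 pM heme-free sGC, expressed in Sf9 and heme-stripped with 0.5% Tween 20. HTRF ratios converted to nM cGMP; EC50 fitted from log concentration.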

[2] = Assessment of solubility: HT solubility in pION buffer, UV spectrophotometry; details: 16-19 h incubation, 1.0% DMSO; for solubility: pION system solution buffer, kinetic from dmso stock
[3] = pH 4.5, pH 4.5, aqueous buffer, Solubility (pH 4.5), pH 4.5 buffer
[4] = pH 7.4, pH 7.4, aqueous buffer, Solubility (pH 7.4), pH 7.4 buffer

| SMILES | EC50 [1] [nM] | solubility [2, 3] [µg/mL] | solubility [2, 4] [µg/mL] | Solubility (pH 4.5) ([2]; pH 4.5 buffer) [μg/mL] |
| --- | --- | --- | --- | --- |
| Cc1cc(C(=O)N2CCCCC2)ccc1COc1ccc(Cl)cc1-c1csc(N2CCC(C(=O)O)C(C)C2)n1 (stereo not drawn) [Compound 103] | 17 | 0.3 (≈ 0.528 µM) | 35 (≈ 61.6 µM) | – |
| Cc1ccc(OCc2ccc(CN3CCS(=O)(=O)CC3)cc2C)c(-c2csc(N3CCC(C(=O)O)CC3)n2)c1 [Compound 104] | 19 | 0.35 (≈ 0.614 µM) | > 68 | – |
| Cc1ccc(OCc2ccc(C(=O)N3CCC(F)(F)CC3)cc2C)c(-c2csc(N3CCC(C(=O)O)CC3)n2)c1 [Compound 106] | 100 | 0.3 (≈ 0.527 µM) | > 56 | – |
| Cc1cc(CN2CCS(=O)(=O)CC2)ccc1COc1ccccc1-c1csc(N2CCC(C(=O)O)C(C)C2)n1 (stereo not drawn) [Compound 107] | 71 | 0.65 (≈ 1.14 µM) | > 56 | – |
| Cc1cc(CN2CCS(=O)(=O)CC2)ccc1COc1ccccc1-c1csc(N2CCC(C(=O)O)CC2C)n1 (stereo not drawn) [Compound 108] | 100 | 2.3 (≈ 4.04 µM) | > 56 | – |
| Cc1cc(C(=O)N2CCCCC2)ccc1COc1ccc(C#N)cc1-c1csc(N2C3CCC2CC(C(=O)O)C3)n1 (stereo not drawn) [Compound 109] | 1500 | 0.65 (≈ 1.14 µM) | > 56 | – |
| Cc1cc(CN2CCOCC2)ccc1COc1ccccc1-c1csc(N2CCC(C(=O)O)CC2C(F)(F)F)n1 (stereo not drawn) [Compound 114] | 470 | 30 (≈ 52.1 µM) | > 57 | – |
| CNC(=O)C1CCN(Cc2ccc(COc3c(C)cccc3-c3csc(N4CCC(C(=O)O)CC4)n3)c(C)c2)CC1 [Compound 115] | 2700 | > 57 | > 57 | – |
| Cc1cc(C(=O)N2CCCCC2)ccc1COc1ccc(Cl)cc1-c1csc(N2C3CCC2CC(C(=O)O)C3)n1 (stereo not drawn) [Compound 117] | 30 | 0.25 (≈ 0.431 µM) | > 57 | – |
| Cc1ccc(OCc2ccc(CN3CCS(=O)(=O)CC3)cc2C#N)c(-c2csc(N3CCC(C(=O)O)CC3)n2)c1 [Compound 119] | 39 | 1.6 (≈ 2.76 µM) | > 69 | – |
| Cc1cc(CN2CCS(=O)(=O)CC2)ccc1COc1ccccc1-c1csc(N2CC3CCC(C2)C3C(=O)O)n1 (stereo not drawn) [Compound 121] | 280 | 3.3 (≈ 5.67 µM) | > 58 | – |
| Cc1ccc(OCc2ccc(C(=O)N3CCS(=O)(=O)CC3)cc2C)c(-c2csc(N3CCC(C(=O)O)CC3)n2)c1 [Compound 122] | 81 | 4.3 (≈ 7.37 µM) | > 58 | – |
| Cc1cc(CN(C)C2CCS(=O)(=O)C2)ccc1COc1c(C)cccc1-c1csc(N2CCC(C(=O)O)CC2)n1 (stereo not drawn) [Compound 123] | 17 | 31 (≈ 53.1 µM) | > 58 | – |
| Cc1ccc(OCc2ccc(C(=O)N(C)CC3CCCCC3)cc2C#N)c(-c2csc(N3CCC(C(=O)O)CC3)n2)c1 [Compound 125] | 74 | – | 14 (≈ 23.9 µM) | 0.1 |
| Cc1cc(C(=O)N2CCCCC2)ccc1COc1c(-c2csc(N3CCC(C(=O)O)CC3)n2)cccc1C(F)(F)F [Compound 126] | 46 | 0.15 (≈ 0.255 µM) | > 58 | – |
| Cc1cc(C(=O)N2CCCCC2)ccc1COc1ccccc1-c1csc(N2CCC(C(=O)O)C(C(F)(F)F)C2)n1 (stereo not drawn) [Compound 127] | 400 | 0.2 (≈ 0.34 µM) | > 58 | – |
| Cc1cc(CN2CCS(=O)(=O)CC2)ccc1COc1ccc(F)cc1-c1csc(N2CCC(C(=O)O)C(C)C2)n1 (stereo not drawn) [Compound 129] | 89 | 0.15 (≈ 0.255 µM) | > 58 | – |
| Cc1ccc(OCc2ccc(CN3CCOCC3)cc2C)c(-c2csc(N3CCC(C(=O)O)CC3C(F)(F)F)n2)c1 (stereo not drawn) [Compound 132] | 160 | 15 (≈ 25.4 µM) | > 58 | – |
| Cc1cc(CN2CCS(=O)(=O)CC2)ccc1COc1ccc(Cl)cc1-c1csc(N2CCC(C(=O)O)CC2)n1 [Compound 133] | 45 | 0.2 (≈ 0.339 µM) | > 58 | – |
| Cc1cc(CN2CCS(=O)(=O)CC2)ccc1COc1ccc(C#N)cc1-c1csc(N2CCC(C(=O)O)C(C)C2)n1 (stereo not drawn) [Compound 135] | 2700 | 0.45 (≈ 0.757 µM) | > 59 | – |
| Cc1ccc(OCc2ccc(CN3CCS(=O)(=O)CC3)cc2C)c(-c2csc(N3CC4CCC(C3)C4C(=O)O)n2)c1 (stereo not drawn) [Compound 136] | 6.1 | 0.45 (≈ 0.755 µM) | > 59 | – |
| Cc1ccc(OCc2ccc(CN3CCS(=O)(=O)CC3)cc2C)c(-c2csc(N3C4CCC3CC(C(=O)O)C4)n2)c1 (stereo not drawn) [Compound 137] | 64 | 0.95 (≈ 1.59 µM) | > 59 | – |
| Cc1cc(CN2CCS(=O)(=O)CC2)ccc1COc1ccc(F)cc1-c1csc(N2C3CCC2CC(C(=O)O)C3)n1 (stereo not drawn) [Compound 139] | 380 | 0.6 (≈ 1 µM) | > 59 | – |
| N#Cc1cc(CN2CCS(=O)(=O)CC2)ccc1COc1c(Cl)cccc1-c1csc(N2CCC(C(=O)O)CC2)n1 [Compound 140] | 79 | 1.8 (≈ 2.99 µM) | > 60 | – |
| Cc1ccc(OCc2ccc(C(=O)N3CCCCC3)cc2C)c(-c2csc(N3CCC(C(=O)O)CC3C(F)(F)F)n2)c1 (stereo not drawn) [Compound 141] | 3.9 | 0.2 (≈ 0.332 µM) | > 60 | – |

Further compounds by falling EC50 [1], results first:

| EC50 [1] [nM] | solubility [2, 3] [µg/mL] | solubility [2, 4] [µg/mL] | Solubility (pH 4.5) ([2]; pH 4.5 buffer) [μg/mL] | SMILES |
| --- | --- | --- | --- | --- |
| 1800 | > 68 | > 68 | – | Cc1cc(CN2CCC(C(=O)N(C)C)CC2)ccc1COc1c(C)cccc1-c1csc(N2CCC(C(=O)O)CC2)n1 [Compound 134] |
| 1200 | 0.35 (≈ 0.612 µM) | > 57 | – | Cc1cc(CN2CCS(=O)(=O)CC2)ccc1COc1ccc(F)cc1-c1csc(N2CC3C(C2)C3C(=O)O)n1 (stereo not drawn) [Compound 110] |
| 400 | > 68 | > 68 | – | Cc1ccc(OCc2ccc(CN(C)CC3CCOCC3)cc2C#N)c(-c2csc(N3CCC(C(=O)O)CC3)n2)c1 [Compound 112] |
| 180 | > 70 | > 70 | – | Cc1ccc(OCc2ccc(CN3CCC(S(C)(=O)=O)CC3)cc2C)c(-c2csc(N3CCC(C(=O)O)CC3)n2)c1 [Compound 138] |
| 88 | 0.15 (≈ 0.255 µM) | > 58 | – | Cc1cc(CN2CCS(=O)(=O)CC2)ccc1COc1ccc(F)cc1-c1csc(N2CCC(C(=O)O)CC2C)n1 (stereo not drawn) [Compound 131] |
| 85 | 0.3 (≈ 0.517 µM) | 21 (≈ 36.2 µM) | – | Cc1cc(C(=O)N2CCCCC2)ccc1COc1ccc(Cl)cc1-c1csc(N2CC3CCC(C2)C3C(=O)O)n1 (stereo not drawn) [Compound 118] |
| 74 | 0.25 (≈ 0.436 µM) | > 57 | – | Cc1cc(CN2CCS(=O)(=O)CC2)ccc1COc1ccc(F)cc1-c1csc(N2CCC(C(=O)O)CC2)n1 [Compound 111] |
| 56 | > 57 | > 57 | – | Cc1cc(CN2CCOCC2)ccc1COc1c(-c2csc(N3CCC(C(=O)O)CC3)n2)cccc1C(F)(F)F [Compound 113] |
| 37 | 8.9 (≈ 15.6 µM) | > 56 | – | Cc1cc(CN2CCS(=O)(=O)CC2)ccc1COc1c(C)cccc1-c1csc(N2CCC(C(=O)O)CC2)n1 [Compound 105] |
| 30 | 0.25 (≈ 0.44 µM) | 26 (≈ 45.8 µM) | – | Cc1cc(C(=O)N2CCCCC2)ccc1COc1ccc(Cl)cc1-c1csc(N2CCC(C(=O)O)CC2C)n1 (stereo not drawn) [Compound 102] |
| 30 | 0.3 (≈ 0.51 µM) | > 58 | – | Cc1cc(C(=O)N2CCCCC2)ccc1COc1ccccc1-c1csc(N2CCC(C(=O)O)CC2C(F)(F)F)n1 (stereo not drawn) [Compound 130] |
